Reference: patent publication US12668763B2, “Co-culturing device, motor neuron culturing device, multi-well plate, fabrication method of in vitro evaluation model of neuromuscular disease, and screening method of therapeutic agent against neuromuscular disease” (priority 2019, dated 2026)

Tested on: motor neuron / skeletal muscle tissue (neuromuscular junction) of the evaluation model
Assay: Contraction of skeletal muscle tissue caused by stimulation of motor neurons in the evaluation model (device a), moving-image analysis
Type: cell-based, human

Row | Structure (SMILES) | contraction of a skeletal muscle tissue after addition of the drug
1 | N[C@@H](CCC(=O)O)C(=O)O [glutamic acid, Glutamic acid] | causes contraction of a skeletal muscle tissue
2 | NC1=N[C@H](O)[C@H]2[C@H]3O[C@]4(O)O[C@@H]([C@@H](O)[C@@]2(N1)[C@@H]4O)[C@]3(O)CO [tetrodotoxin] | stops contraction of a skeletal muscle tissue
